Measured values reported in patent publication EP4563149A1, “LURBINECTEDIN, ECUBECTEDIN AND A RELATED COMPOUND FOR USE IN THE TREATMENT OF SKIN CANCERS” (Pharma Mar, S.A., priority 2023, dated 2025).
Where two headings read alike, the source gives them in different places.

Tests used:
[1] = test system: melanoma cell cultures or cell lines; test: Clonogenic assay; format: cell-based, human; conditions: 48h at IC50 concentrations, then 10 days without drug
Protocol: Based on the cell viability assays conducted above, the efficacy of lurbinectedin, PM14 or Compound IA on melanoma cell proliferation was investigated. Initially, a clonogenic assay was performed. Cells were drug-treated at IC50 concentrations during 48h before seeding 1×10^3 or 2×10^3 cells in 6-well plates without drug, wherein they grew for 10 days to allow for colony formation. Afterwards, cells were fixed for 10min with 4% formaldehyde solution, washed once with PBS and stained with Crystal Violet solution 0.2% for 15 min. The wells were finally washed twice with deionized water, air dried, scanned and analyzed with Fiji software to count the number of colonies.

melanoma cells = test: Cell proliferation by CellTrace Violet flow cytometry; format: cell-based, human; conditions: IC50 concentrations, compared to DMSO
Protocol: After 48h of incubation, cells were rinsed and incubated with AnnexinV-APC (BD Biosciences). Cell proliferation and apoptosis were detected on a BD LSRFortessaTM Flow Cytometer. Data were analyzed with FlowJo software. To define slow proliferating or apoptotic cells: it was considered that slow proliferating cells represented the 30% of cells with the highest concentration of CellTrace Violet signal in the DMSO control. […] For apoptotic cells, it was considered the 20% of cells with the highest signal of AnnexinV-APC in the DMSO control.

[2] = test system: RPB1 (RNA pol II elongation subunit); test: Immunoblotting of RPB1 in 501mel; format: cell-based, human; conditions: 24h at 5×IC50
Protocol: Cells were washed once with cold PBS, rinsed with a cell scraper, pelleted and resuspended in LSDB 0.5M buffer (0.5M KCI, 50mM Tris HCl pH 7.9, 20% Glycerol, 1% NP40, 1mM DTT, PIC). Afterwards cells were fully disrupted with 3 cycles of heat shock in liquid nitrogen and 37°C water bath and centrifugated 15min at 14,000rpm to pellet cell debris. Ten micrograms of extract were loaded on SDS-PAGE before transfer to nitro-cellulose membranes and immunoblotting.

MM074 melanospheres = test: Melanosphere viability (CellTiterGlo); format: cell-based, human; conditions: 72h, doses equivalent to 5×IC50
Protocol: MM074 proliferative/differentiated cell line were seeded (5×10^4 cells) in ultra-low attachment hydrogel-layered 96 well plates in KO DMEM medium supplemented with 20% KSR, AANE, 2 mM Glutamax, Penicillin/Streptomycin and 100 uM Beta-mercaptoethanol. To allow for melanosphere formation, cells were left to grow for 4 days before drug treatment.
To analyze melanosphere viability after drug treatment, cells were treated with CellTiterGlo reagent (Promega) according to the manufacturer's instructions. Luminescence signals were measured with a Centro XS LB 960 microplate reader (Berthold).

[3] = test system: 501mel, 501mel^VemuR and SKMEL28-derived xenografts; conditions: 24h after single IV dose of 1.2 mg/kg
Source text: To investigate the effects of the aforementioned tested drugs in living organisms, it was decided to examine the impact of PM14 and Compound IA on melanoma cell-derived xenograft (CDXs) mouse models. Human 501mel, 501mel^VemuR or SKMEL28 melanoma cells were subcutaneously implanted into the right flank of NSG mice.

[4] = test system: 501mel melanoma xenografts; conditions: 1.2 mg/kg intravenous
Protocol: (§1) Female athymic nu/nu mice (Harlan Laboratories Models, S.L. Barcelona, Spain or Envigo, Spain) were utilized for all experiments. Animal were housed in individually ventilated cages Sealsafe® Plus, Techmplast S.P.A.), up to ten per cage on a 12-hour light-dark cycle at 21-23 °C and 40-60 % humidity. Mice were allowed free access to irradiated standard rodent diet (Tecklad 2914C) and sterilized water. Animals were acclimated for at least 5 days prior to tumor implantation with a tumor cell suspension.
(§2) The cell line used are: • 501mel • IGR-37 • SK-Mel-28 • WM-266-4 • LOX-IMVI • 501mel^Vemur
(§3) In xenograft studies with cell lines: • Tumour volume was calculated using the equation […], where a: length (longest diameter) and b: width (shortest diameter) were measured in mm by using digital caliper (Fowler Sylvac, S235PAT). Tumour dimensions and body weights were recorded 2-3 times per week starting from the first day of treatment. • When tumors reached ca. 150-250 mm^3, tumour bearing animals (N = 8-10/group) were randomly allocated into the treatment groups, based on body weight and tumour measurements by using NewLab Oncology Software (version 2.25.06.00). • Comparison between median tumour volume of treated and placebo groups was used for evaluation of the antitumoural efficacy. • Animals were euthanized when their tumours reached ca. 1,500 mm^3 and/or severe necrosis was seen.
(§4) Treatments producing >20 % lethality and/or 20% net body weight loss were considered toxic.
(§5) In these experiments, PM14 and Compound IA, as well as placebo, were intravenously administered once per week for 3 consecutive weeks, on days 0, 7 and 14, whenever it was possible.
Table 4. Tumour volume evaluation in 501mel melanoma xenografts with PM14 and Compound IA and placebo.

[5] = test system: IGR-37 melanoma xenografts; conditions: 1.2 mg/kg intravenous
Protocol: as §1, §2, §3, §4, §5
Table 5. Tumour volume evaluation in IGR-37 melanoma xenografts with PM14 and Compound IA and placebo.

[6] = test system: Sk-mel-28 melanoma xenografts; conditions: 1.2 mg/kg intravenous
Protocol: as §1, §2, §3, §4, §5
Table 6. Tumour volume evaluation in Sk-mel-28 melanoma xenografts with PM14 and Compound IA and placebo.

501mel = test: Cell viability assay (PrestoBlue), 72h; conditions: Homo sapiens
Protocol: (§6) Cells were grown at 37°C in 5% CO2 (10% for Hermes 3A) and were regularly checked for mycoplasma contamination. […] Melanoma cell lines 501mel and SKmel28 were grown in RPMI w/o HEPES (Gibco, Invitrogen) supplemented with 10% FCS and gentamycin. Vemurafenib-resistant cells (501melVemuR and MM074VemuR) were additionally supplemented with 1.5 µM of vemurafenib. Melanoma IGR cell lines (IGR37 and IGR39) were grown in RPMI w/o HEPES (Gibco, Invitrogen) supplemented with 15% FCS and gentamycin.
(§7) To determine the IC50 (half maximal inhibitory concentration) of these cells to various inhibitors, cell viability assays were performed.
(§8) After 72h of treatment with different concentrations of the compounds, cells were treated with PrestoBlue reagent according to the manufacturer's instructions. The absorbance per well was measured with a Cellinsight CX5 microplate reader. Data were analyzed using Prism9 statistical software.

MM117 = test: Cell viability assay (PrestoBlue), 72h; conditions: Homo sapiens
Protocol: as §6, §7, §8

Question: What does the source list for COc1c(C)cc2c(c1O)[C@@H]1[C@@H]3[C@@H]4SC[C@]5(N[C@H](CO)Cc6c5[nH]c5ccccc65)C(=O)OC[C@@H](c5c6c(c(C)c(OC(C)=O)c54)OCO6)N3[C@@H](O)[C@H](C2)N1C [PM14, ecubectedin]?
Answer: colony formation (number of colonies) [1]: significant impact; melanoma cell proliferation (melanoma cells): significant inhibition; RPB1 (RNA pol II elongation subunit) degradation [2]: pronounced; cell viability in 3D culture (MM074 melanospheres): significant cytotoxic effects; fraction of apoptotic cells (cleaved caspase-3) [3]: significant increase; Median Tumour Volume ([4]; days 0, 7 and 14, day 0): 158.8 mm^3; Median Tumour Volume ([4]; days 0, 7 and 14, day 3): 215.5 mm^3; Median Tumour Volume ([4]; days 0, 7 and 14, day 5): 252.3 mm^3; Median Tumour Volume ([4]; days 0, 7 and 14, day 7): 372.7 mm^3; Median Tumour Volume ([4]; days 0, 7 and 14, day 10): 503.6 mm^3; Median Tumour Volume ([4]; days 0, 7 and 14, day 12): 599.4 mm^3; Median Tumour Volume ([4]; days 0, 7 and 14, day 14): 797.2 mm^3; Median Tumour Volume ([4]; days 0, 7 and 14, day 17): 950 mm^3; Median Tumour Volume ([4]; days 0, 7 and 14, day 19): 1,113.5 mm^3; Median Tumour Volume ([4]; days 0, 7 and 14, day 21): 1,309.8 mm^3; Median Tumour Volume ([4]; days 0, 7 and 14, day 24): 1,530.7 mm^3; Median Tumour Volume ([5]; days 0, 7 and 14, day 0): 150.4 mm^3; Median Tumour Volume ([5]; days 0, 7 and 14, day 2): 216.6 mm^3; Median Tumour Volume ([5]; days 0, 7 and 14, day 4): 326.3 mm^3; Median Tumour Volume ([5]; days 0, 7 and 14, day 7): 544.5 mm^3; Median Tumour Volume ([5]; days 0, 7 and 14, day 9): 704.9 mm^3; Median Tumour Volume ([5]; days 0, 7 and 14, day 11): 821.6 mm^3; Median Tumour Volume ([5]; days 0, 7 and 14, day 14): 1,127.4 mm^3; Median Tumour Volume ([5]; days 0, 7 and 14, day 16): 1,351.7 mm^3; Median Tumour Volume ([5]; days 0, 7 and 14, day 18): 1,594 mm^3; Median Tumour Volume ([6]; days 0, 7 and 14, day 0): 152.8 mm^3; Median Tumour Volume ([6]; days 0, 7 and 14, day 2): 184.4 mm^3; Median Tumour Volume ([6]; days 0, 7 and 14, day 4): 235.4 mm^3; Median Tumour Volume ([6]; days 0, 7 and 14, day 7): 326.2 mm^3; Median Tumour Volume ([6]; days 0, 7 and 14, day 9): 401.5 mm^3; Median Tumour Volume ([6]; days 0, 7 and 14, day 11): 510.6 mm^3; Median Tumour Volume ([6]; days 0, 7 and 14, day 14): 632.6 mm^3; Median Tumour Volume ([6]; days 0, 7 and 14, day 16): 671.9 mm^3; Median Tumour Volume ([6]; days 0, 7 and 14, day 18): 822.8 mm^3; Median Tumour Volume ([6]; days 0, 7 and 14, day 21): 884.4 mm^3; Median Tumour Volume ([6]; days 0, 7 and 14, day 23): 1,012.5 mm^3; Median Tumour Volume ([6]; days 0, 7 and 14, day 25): 1,204.2 mm^3; Median Tumour Volume ([6]; days 0, 7 and 14, day 28): 1,516.7 mm^3; IC50 (501mel): 1.25 nM; IC50 (MM117): 0.72 nM

Question: Which “colony formation (number of colonies)” value [1] does the source give for COc1c(C)cc2c(c1O)[C@@H]1[C@@H]3[C@@H]4SC[C@]5(N[C@H](CO)Cc6c5oc5ccccc65)C(=O)OC[C@@H](c5c6c(c(C)c(OC(C)=O)c54)OCO6)N3[C@@H](O)[C@H](C2)N1C [Compound IA] here?
Answer: significant impact

Question: And the melanoma cell proliferation (melanoma cells)?
Answer: significant inhibition

Question: What about the “RPB1 (RNA pol II elongation subunit) degradation” value [2] of the same compound?
Answer: pronounced

Question: And the “cell viability in 3D culture” value (MM074 melanospheres)?
Answer: significant cytotoxic effects

Question: What about the “fraction of apoptotic cells (cleaved caspase-3)” value [3] of the same compound?
Answer: significant increase

Question: What about the “Median Tumour Volume” value ([4]; days 0, 7 and 14, day 0) of the same compound?
Answer: 158.5 mm^3

Question: What about the “Median Tumour Volume” value ([4]; days 0, 7 and 14, day 3) of the same compound?
Answer: 208.3 mm^3

Question: And the “Median Tumour Volume” value ([4]; days 0, 7 and 14, day 5)?
Answer: 279.8 mm^3

Question: And the “Median Tumour Volume” value ([4]; days 0, 7 and 14, day 7)?
Answer: 328.5 mm^3

Question: And the “Median Tumour Volume” value ([4]; days 0, 7 and 14, day 10)?
Answer: 455.2 mm^3

Question: What about the “Median Tumour Volume” value ([4]; days 0, 7 and 14, day 12) of the same compound?
Answer: 614.1 mm^3

Question: What about the “Median Tumour Volume” value ([4]; days 0, 7 and 14, day 14) of the same compound?
Answer: 749.8 mm^3

Question: And the “Median Tumour Volume” value ([4]; days 0, 7 and 14, day 17)?
Answer: 913 mm^3

Question: And the “Median Tumour Volume” value ([4]; days 0, 7 and 14, day 19)?
Answer: 1,233 mm^3

Question: And the “Median Tumour Volume” value ([4]; days 0, 7 and 14, day 21)?
Answer: 1,341.4 mm^3

Question: And the “Median Tumour Volume” value ([4]; days 0, 7 and 14, day 24)?
Answer: 1,581.4 mm^3

Question: What about the “Median Tumour Volume” value ([5]; days 0, 7 and 14, day 0) of the same compound?
Answer: 150 mm^3

Question: What about the “Median Tumour Volume” value ([5]; days 0, 7 and 14, day 2) of the same compound?
Answer: 236.5 mm^3

Question: And the “Median Tumour Volume” value ([5]; days 0, 7 and 14, day 4)?
Answer: 377.5 mm^3

Question: What about the “Median Tumour Volume” value ([5]; days 0, 7 and 14, day 7) of the same compound?
Answer: 608 mm^3

Question: What about the “Median Tumour Volume” value ([5]; days 0, 7 and 14, day 9) of the same compound?
Answer: 886.9 mm^3

Question: And the “Median Tumour Volume” value ([5]; days 0, 7 and 14, day 14)?
Answer: 1,163.9 mm^3

Question: What about the “Median Tumour Volume” value ([5]; days 0, 7 and 14, day 16) of the same compound?
Answer: 936.5 mm^3

Question: And the “Median Tumour Volume” value ([5]; days 0, 7 and 14, day 18)?
Answer: 1,027.6 mm^3

Question: What about the “Median Tumour Volume” value ([6]; days 0, 7 and 14, day 0) of the same compound?
Answer: 152.3 mm^3

Question: What about the “Median Tumour Volume” value ([6]; days 0, 7 and 14, day 2) of the same compound?
Answer: 179.8 mm^3

Question: What about the “Median Tumour Volume” value ([6]; days 0, 7 and 14, day 4) of the same compound?
Answer: 232.7 mm^3

Question: And the “Median Tumour Volume” value ([6]; days 0, 7 and 14, day 7)?
Answer: 302 mm^3

Question: And the “Median Tumour Volume” value ([6]; days 0, 7 and 14, day 9)?
Answer: 397.8 mm^3

Question: And the “Median Tumour Volume” value ([6]; days 0, 7 and 14, day 11)?
Answer: 476.6 mm^3

Question: And the “Median Tumour Volume” value ([6]; days 0, 7 and 14, day 14)?
Answer: 551.1 mm^3

Question: And the “Median Tumour Volume” value ([6]; days 0, 7 and 14, day 16)?
Answer: 585.8 mm^3

Question: What about the “Median Tumour Volume” value ([6]; days 0, 7 and 14, day 18) of the same compound?
Answer: 676.6 mm^3

Question: And the “Median Tumour Volume” value ([6]; days 0, 7 and 14, day 21)?
Answer: 748.7 mm^3

Question: What about the “Median Tumour Volume” value ([6]; days 0, 7 and 14, day 23) of the same compound?
Answer: 866.2 mm^3

Question: And the “Median Tumour Volume” value ([6]; days 0, 7 and 14, day 25)?
Answer: 906.6 mm^3

Question: What about the “Median Tumour Volume” value ([6]; days 0, 7 and 14, day 28) of the same compound?
Answer: 1,203.1 mm^3

Question: And the “Median Tumour Volume” value ([6]; days 0, 7 and 14, day 32)?
Answer: 1,331.3 mm^3

Question: And the “Median Tumour Volume” value ([6]; days 0, 7 and 14, day 35)?
Answer: 1,593.1 mm^3

Question: And the IC50 (501mel)?
Answer: 1.74 nM

Question: What about the IC50 (MM117) of the same compound?
Answer: 1.16 nM
